Assay results published in PMC11025614 (Pharmacology Research & Perspectives, 2024).

Tests used:
[1] = oral midazolam with fluconazole; cited from earlier work
[2] = Therapeutic drug monitoring of sirolimus trough concentration; format: in vivo, human
[3] = cited from earlier work
PopPK modeling = format: in vivo, human; details: for Vd: female, human, blood, oral

Compound | increase of AUC [1] [%] | increase of C max [1] [%] | sirolimus C min ([2]; 4.5 mg twice daily with fluconazole 400 mg/day) [ng/mL] | sirolimus C min ([2]; 9 mg daily with oral fluconazole 400 mg once daily, day 3 after initiation) [ng/mL] | sirolimus C min ([2]; after 1 week of 9 mg/day (assumed steady-state), no fluconazole) [ng/mL] | sirolimus concentrations ([2]; afterward, during fluconazole, for more than 4 weeks) [ng/mL] | mean sirolimus C min ([2]; maintenance dose 9 mg sirolimus/day, before fluconazole) [ng/mL] | variation in apparent oral clearance between patients ([3]; ciclosporin and prednisone coadministered) [fold] | apparent oral sirolimus clearance, population mean ([3]; estimated by Wu and coworkers) [L/h] | CL1 (apparent oral clearance, clearance from central compartment) (PopPK modeling; before fluconazole) [L/h] | CL2 (clearance between central and peripheral compartments) (PopPK modeling; before fluconazole) [L/h] | V 2 (volume of distribution of peripheral compartment) (PopPK modeling; before fluconazole) [L] | CL1 (apparent oral clearance, clearance from central compartment) (PopPK modeling; during fluconazole) [L/h] | CL2 (clearance between central and peripheral compartments) (PopPK modeling; during fluconazole) [L/h] | V 2 (volume of distribution of peripheral compartment) (PopPK modeling; during fluconazole) [L] | Vd (PopPK modeling) [L] | Vd (PopPK modeling; 5 mg/day) [L]
Cc1ncc2n1-c1ccc(Cl)cc1C(c1ccccc1F)=NC2 [midazolam] | 270 | 130 |  |  |  |  |  |  |  |  |  |  |  |  |  |  | 
CO[C@H]1C[C@@H]2CC[C@@H](C)[C@@](O)(O2)C(=O)C(=O)N2CCCC[C@H]2C(=O)O[C@H]([C@H](C)C[C@@H]2CC[C@@H](O)[C@H](OC)C2)CC(=O)[C@H](C)/C=C(\C)[C@@H](O)[C@@H](OC)C(=O)[C@H](C)C[C@H](C)/C=C/C=C/C=C/1C [sirolimus] |  |  | 8.2 | 4.7 | 2.9 to 4.2 | 3.1 to 9.5 | 3.5 | 4.5 | 12.9 | 30.7 | 253 | 305 | 14.1 | 8.56 | 361 | 81.3 | 33.7
